Reference: PubChem BioAssay (NCI)
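A five-concentration, 48-hour dose response in 96-well plates underlies each endpoint, interpolated linearly between surrounding concentrations. At the GI50, growth is halved. TGI denotes the concentration required for complete inhibition of growth.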

These molecules were tested on MDA-MB-468 breast (assay: NCI-60 cell line screen, 48 h).
In the case of `O=C(CCCCCCNC(=O)C(O)(O)C(F)(F)F)Nc1ncc(-c2ccccc2)s1`, the GI50 was 0.748 µM and the TGI was 10.9 µM.
For `O=C(N/N=C/c1c(Cl)cccc1Cl)c1ccc(C(F)(F)F)nc1Nc1cccc(C(F)(F)F)c1`, the GI50 was 0.52 µM and the TGI was 3.62 µM.
`COc1ccc2c(c1)C(C)Cc1c(ncnc1-n1cnc3cc(C)ccc31)N2C` (stereo unspecified) gave a GI50 of 0.0341 µM and a TGI of 18.9 µM.
Molecule `O=C(OCc1ccc2c(Cl)cc(Cl)c(O)c2n1)N1CCN(C(=O)c2cc3cc(F)ccc3[nH]2)CC1` has a GI50 of 0.558 µM and a TGI greater than 27.9 µM.
Molecule `COC[C@]12CC[C@@H](C)[C@H](C)[C@H]1C1=CC[C@@H]3[C@@]4(C)CCCNC(C)(C)[C@@H]4CC[C@@]3(C)[C@]1(C)CC2` has a GI50 of 1.71 µM and a TGI of 3.43 µM.
`COc1ccc(Cc2cnc(NC(=O)c3ccc4c(c3)OCCO4)s2)cc1` showed a GI50 of 0.0376 µM and a TGI of 24.7 µM.
`Cn1cc(-c2ccc(-c3cncc(Cl)c3N3CCC4(CCNC4=O)CC3)cc2)cn1` showed a GI50 of 19.9 µM and a TGI greater than 100 µM.
`COc1ccc(/C=C(/c2ccccc2)[N+](=O)[O-])cc1` showed a GI50 of 1.46 µM and a TGI of 3.31 µM.
`O=C(Nc1ccc(Cl)c(Cl)c1)Nc1ccccc1O` was tested, and the GI50 was 6.26 µM and the TGI was 33.6 µM.
`CCN(CC)c1cc2oc3cc(N)cc(=N)c-3nc2cc1C` showed a GI50 of 2.59 µM and a TGI of 9.37 µM.
For `COc1ccc(-c2csc(NC(=O)CSc3nc(C)c(-c4ccccc4)n3Nc3ccccc3)n2)cc1`, the GI50 was greater than 100 µM and the TGI was greater than 100 µM.
Work on `Cn1c(=O)c2c(ncn2CC(=O)Nc2ccc(-c3ccccc3)nn2)n(C)c1=O` yielded a GI50 of 31.4 µM and a TGI greater than 100 µM.
`CN1CCN(Cc2ccc(NC(=O)c3cncc(C#Cc4cnc5[nH]ncc5c4)c3)cc2C(F)(F)F)CC1` gave a GI50 of 1.74 µM and a TGI of 13.5 µM.
Work on `CC1C(c2ccc3c(c2)OCO3)c2cc3c(cc2OC1N1CCOCC1)OCO3` (stereo unspecified) yielded a GI50 of 19.6 µM and a TGI of 60.3 µM.
`O=C(N/N=C/c1ccc([N+](=O)[O-])o1)c1ccc(O)cc1` was tested, and the GI50 was 2.44 µM and the TGI was 10.7 µM.
`N#Cc1ccc(OC(=O)Nc2ccc(Cl)c(Cl)c2)cc1` was tested, and the GI50 was 3.13 µM and the TGI was 15.9 µM.
`CC/C=C/C/C=C/C/C=C/C/C=C/C/C=C/C/C=C/CCC(=O)Nc1ccn([C@@H]2O[C@H](CO)[C@@H](O)C2(F)F)c(=O)n1` was tested, and the GI50 was 0.384 µM and the TGI was greater than 64.6 µM.
With `Cc1c2ccncc2c(C)c2c1[nH]c1ccccc12` the GI50 was 1.16 µM and the TGI was 8.74 µM.
Work on `COC(=O)CCC1=C(CC(=O)OC)C(C)=N/C1=C\c1[nH]c(-c2ccc[nH]2)cc1OC` yielded a GI50 of 3.48 µM and a TGI of 17 µM.
`COc1c(O)c(O)cc2c1-c1ccc(OC)c(=O)cc1C(NC(C)=O)CC2` (stereo unspecified) showed a GI50 of 16.9 µM and a TGI greater than 100 µM.
`O=C(NCc1ccc(S(=O)(=O)c2cc(F)cc(F)c2)cc1)c1ccc2nccn2c1` was tested, and the GI50 was 9.27 µM and the TGI was greater than 100 µM.
For `COC(C(=O)[C@@H](O)[C@@H](C)O)[C@@H]1Cc2cc3cc(O[C@H]4C[C@@H](O[C@H]5C[C@@H](O)[C@H](O)C(C)O5)[C@H](O)C(C)O4)c(C)c(O)c3c(O)c2C(=O)[C@H]1O[C@H]1C[C@@H](O[C@H]2C[C@@H](O[C@H]3C[C@@H](O)[C@H](OC)C(C)O3)[C@@H](O)C(C)O2)[C@H](O)C(C)O1` (stereo partly specified), the GI50 was 0.0329 µM and the TGI was 0.259 µM.
Work on `C/C(=N\NC(=S)N1CC2CCC(CC2)C1)c1ccccn1` yielded a GI50 of less than 0.01 µM and a TGI of 0.104 µM.
`CCCCCCCCCCN1CCC(N2CCCCC2)CC1` was tested, and the GI50 was 1.44 µM and the TGI was 3.01 µM.
Molecule `O=C(Nc1ccc(-n2cc(-c3ccncc3)c(-c3ccc(O)c(Cl)c3)n2)cc1)Nc1cccc(Cl)c1Cl` has a GI50 of 9.23 µM and a TGI greater than 32.5 µM.
`CN1CCN(c2ccc(Nc3ncc4cc(C#N)c(=O)n(C5CCCC5)c4n3)cc2)CC1` showed a GI50 of 3.46 µM and a TGI greater than 100 µM.
`NC(=S)N/N=C/c1cc(-c2cccc(N)c2)ccn1` gave a GI50 of 1.43 µM and a TGI of 4.49 µM.
For `CCCCCc1ccc(S(=O)(=O)Nc2cc(-c3csc(NC(C)=O)n3)ccc2N2CCN(C)CC2)cc1`, the GI50 was 3.73 µM and the TGI was 8.42 µM.
With `CCCCCc1ccc(S(=O)(=O)Nc2cc(-c3csc(NC(=O)CN4CCN(CCO)CC4)n3)ccc2OC)cc1` the GI50 was 1.75 µM and the TGI was 3.6 µM.
For `O=C1C(c2ccccc2)=C(N2CCc3ccccc32)OC1(Cl)Cl`, the GI50 was 1.63 µM and the TGI was 3.25 µM.
Work on `C[C@]12CC[C@@H]3c4ccc(O)c([N+](=O)[O-])c4CC[C@H]3[C@@H]1CC[C@@H]2NS(=O)(=O)c1cccc(Br)c1` yielded a GI50 of 2.74 µM and a TGI of 7.69 µM.
`Cc1cc(C)n(-c2nnc3n2N=C(c2ccc(-c4ccccc4)cc2)CS3)n1` was tested, and the GI50 was 2.27 µM and the TGI was 6.76 µM.
`O=C(NO)c1ccc(CN(c2cnccn2)c2cnccn2)cc1` showed a GI50 of 10.5 µM and a TGI of 28.4 µM.
`COc1ccc2c(c1)c(-c1cc(N)n3nc(-c4cn(C)c5ccc(OC)cc45)cc3n1)cn2C` was tested, and the GI50 was 1.87 µM and the TGI was 3.66 µM.
Molecule `COc1ccc2c(Oc3ccc(NC(=O)c4c(C)n(CC(C)(C)O)n(-c5ccccc5)c4=O)nc3)ccnc2c1` has a GI50 of 16.1 µM and a TGI greater than 96.6 µM.
Work on `Nc1ccccc1SC1CC(=O)N(c2ccc(Cl)c(Cl)c2)C1=O` (stereo unspecified) yielded a GI50 of 18.4 µM and a TGI greater than 100 µM.
With `O=c1oc2ccc(Br)cc2c(=O)n1-c1ccc(F)cc1F` the GI50 was 2.09 µM and the TGI was 5.92 µM.
For `Clc1cc(Cl)cc(Nc2ccc3cc(OCCCN4CCOCC4)ccc3n2)c1`, the GI50 was 2.2 µM and the TGI was 6.23 µM.
